Measurements from patent US6630075B2, “Use of fluorinated ketones in fire extinguishing compositions” (3M Innovative Properties Company, priority 1999, dated 2003).

Key:
[1] = Micro-Cup Burner Test (extinguishing concentration; Mass Ratio Calculation vs HALON 1211)
Source text: The Micro-Cup Burner Test is a laboratory test which measures the extinguishing ability of an agent based on the quantity of agent required to extinguish a fire under the following test conditions. The Micro-Cup Burner Test utilizes a quartz concentric-tube laminar-diffusion flame burner (micro-cup burner, of similar design to the above-described cup apparatus) aligned vertically with all flows upward. A fuel, typically propane unless otherwise specified, flows at 10.0 sccm (standard cubic centimeters per minute) through a 5-mm I.D. inner quartz tube which is centered in a 15-mm I.D. quartz chimney. The chimney extends 4.5 cm above the inner tube. Air flows through the annular region between the inner tube and the chimney at 1000 sccm. Prior to the addition of extinguishing composition, a visually stable flame is supported on top of the inner tube, and the resulting combustion products flow out through the chimney. An extinguishing composition to be evaluated is introduced into the air stream upstream of the burner. Liquid compositions are introduced by a syringe pump (which is calibrated to within 1%) and are volatilized in a heated trap. Gaseous compositions are introduced via a mass-flow controller to the air stream upstream from the burner. For consistency, the air-gaseous composition mixture then flows through the heated trap prior to its introduction to the flame burner. All gas flows are maintained by electronic mass-flow controllers which are calibrated to within 2%. The fuel is ignited to produce a flame and is allowed to burn for 90 seconds. After 90 seconds, a specific flow rate of composition is introduced, and the time required for the flame to be extinguished is recorded. The reported extinguishing concentrations are the recorded volume % of extinguishing composition in air required to extinguish the flame within an average time of 30 seconds or less.
The above-mentioned cup burner test measures the performance of an extinguishing composition by determining the minimum volume percent of composition in air required to extinguish a test fire. However, it is often desirable to directly compare the fire performance of an experimental extinguishing composition (e.g., a fluorinated ketone) against the performance of a state-of-the-art extinguishing composition, such as HALON™ 1211 fire extinguishing agent (CF2ClBr, a bromochlorofluorocarbon). One way to make such a comparison is to derive the mass ratio of experimental composition to HALON™ 1211 fire extinguishing agent from the volume percentages of each composition required for extinguishing. The mass ratio can be calculated by dividing the experimental composition's extinguishing volume percent by the HALON™ 1211 agent's extinguishing volume percent and multiplying the resulting quotient (which, according to the ideal gas law, also represents the ratio of mole percents) times the weight average molecular weight of the experimental composition divided by the molecular weight of HALON™ 1211 agent (165 g/mole).
In Comparative Example C1, the extinguishing concentration (volume % in air) of HALON™ 1211 fire extinguishing agent was determined as using the Micro-Cup Burner Test.
In Examples 1-16, the extinguishing concentration of several perfluorinated ketones was also determined using the Micro-Cup Burner Test. The mass ratio as compared to HALON™ 1211 fire extinguishing agent was then calculated using the Mass Ratio Calculation.
In Comparative Examples C2-C11, various fluorinated extinguishing compositions known in the art (hydrofluorocarbons, perfluorocarbons, hydrochlorofluorocarbons, hydrofluoroethers, and iodofluorocarbons) were evaluated for their extinguishing concentration, and subsequently their mass ratios were calculated with respect to HALON™ 1211 agent. […]

mice = assay: short term inhalation tests with mice; format: in vivo; details: mice exposed for four hours at 50,000 ppm in air
[2] = manual suppression full-scale streaming test, UL Standard 711 pan fires; details: heptane, 60 sec pre-burn
Source text: These two examples were run to illustrate the fire performance of a fluorinated ketone of this invention, CF3CF2C(O)CF(CF3)2 (the fluorinated ketone as prepared in Example 1), using a manual suppression full-scale streaming test for a clean extinguishing agent.
For each example, a standard off-the-shelf Amerex 131b HALON™ 1211 handheld extinguisher was used to introduce the extinguishing composition to the fire. The extinguisher was equipped with a standard ½ in (1.3 cm) nominal diameter rubber hose with a clean extinguishing agent nozzle attached to the end. In each case, the composition was super-pressurized using dry nitrogen at 130-150 psi (900-1040 kPa).
Both fire extinguishing tests were run following essentially the same test procedures and conditions as outlined in UL Standard 711 for the 2B and 5B pan fire scenarios, as normally conducted for UL approval at Underwriters Laboratories, Inc., Northbrook, Ill. The only deviation from that test procedure was that the fire tests for these examples were conducted outside. The fire test pans for the respective fires were sized to be 2.5 times larger than the ultimate extinguisher rating. For example, a 2B UL-rated extinguisher rating requires a skilled firefighter to be able to extinguish a 5 ft^2 (0.46 m^2) fire, a 5B UL-rated extinguisher rating requires extinguishing a 12.5 ft^2(1.16 m^2) fire, etc. For both examples, the UL specified pans were 12 in (30 cm) deep, into which was introduced 4.0 in (10 cm) of water, onto which was introduced 2 in (5 cm) of commercial grade heptane for fuel, leaving a 6 in (15 cm) freeboard above the fuel surface. Each fire was allowed to pre-burn 60 seconds before extinguishing commenced, using an agent flow rate of 0.75-0.80 kg/sec. The discharge time for the extinguishing of the fire was recorded as was the amount of agent discharged.

[3] = total flooding evaluation in 1.28 m^3 enclosure (Ohmic Heating Test procedure); details: 1000 g agent, nitrogen 50 psi
Source text: This example was run to evaluate the fire performance of a fluorinated ketone of this invention, CF3CF2C(O)CF(CF3)2 (the fluorinated ketone as prepared in Example 1), in a total flooding evaluation for a clean extinguishing agent.
For this evaluation, a 1.28 m^3 (0.915 m×0.915 m×1.525 m) steel reinforced polycarbonate “box” enclosure was used, into which a fixed piping system, normally designed to deliver a gaseous clean extinguishing agent, was filled instead with a composition that is liquid at room temperature and discharged into the “box” to extinguish a fire. Using this modified system and procedure, the liquid fluorinated ketone used, CF3CF2C(O)CF(CF3)2, could be discharged into the enclosure indirectly in the same manner as could a gaseous clean extinguishing agent and thus allow the liquid agent to extinguish an obstructed fire located remotely in the enclosure.
In this modified procedure, a Swagelok Whitey 2000 mL cylinder was filled with 1000 g of CF3CF2C(O)CF(CF3)2 and was super-pressurized with nitrogen to 50 psi (345 kPa). Attached to the bottom of the cylinder was a 0.25 in (0.6 cm) Swagelok Whitey SS1RFA-A stainless steel angle valve, to which was fixed 34 in (86.4 cm) of nominal 0.25 in (6.5 mm) piping arrangement, including a 0.25 in (6.5 mm) Jamesbury Clincher ¼-turn ball valve. The piping was connected to a Bete NF 0500 square edge orifice nozzle. […]

O=C(C(F)(F)C(F)(F)F)C(F)(C(F)(F)F)C(F)(F)F [Example 1, 1,1,1,2,4,4,5,5,5-nonafluoro-2-trifluoromethyl-butan-3-one]
Mass Ratio to HALON™ 1211 ([1]; calculated from extinguishing volume % and molecular weight relative to HALON 1211 (165 g/mole)): 1.86
Ext. Conc. (vol %) ([1]; volume % in air required to extinguish the flame within an average time of 30 seconds or less, propane fuel): 3.5 vol %
acute toxicity (mice): low acute toxicity
Agent Discharged ([2]; UL 2B pan): 2.59 kg
Discharge Time ([2]; UL 2B pan): 3.5 s
Agent Discharged ([2]; UL 5B pan): 2.87 kg
Discharge Time ([2]; UL 5B pan): 3.8 s
time to extinguishing of the obstructed fire from the beginning of agent discharge [3]: ≤ 35 s
